The text below walks through data of patent US7378497B2, “Potassium channels and genes encoding these potassium channels” (NeuroSearch A/S, priority 1999, dated 2008).

SMILES strings stand for the structures.

Assay [1] has as its target KCNQ2/KCNQ3 channels (Homo sapiens, UniProt O43525+O43526, N780T). Conditions: 200 μM Linopirdine; cited from earlier work.
In assay [2] the target is T1, KCNQ4 (Homo sapiens, UniProt P56696, H455Q).
T1 construct: A complete cDNA was assembled and cloned into the oocyte expression vector PTLN; expressed in transfected cells; host or cells: Xenopus oocytes (cRNA injection)
T1 sequence (P56696 1-695 H455Q): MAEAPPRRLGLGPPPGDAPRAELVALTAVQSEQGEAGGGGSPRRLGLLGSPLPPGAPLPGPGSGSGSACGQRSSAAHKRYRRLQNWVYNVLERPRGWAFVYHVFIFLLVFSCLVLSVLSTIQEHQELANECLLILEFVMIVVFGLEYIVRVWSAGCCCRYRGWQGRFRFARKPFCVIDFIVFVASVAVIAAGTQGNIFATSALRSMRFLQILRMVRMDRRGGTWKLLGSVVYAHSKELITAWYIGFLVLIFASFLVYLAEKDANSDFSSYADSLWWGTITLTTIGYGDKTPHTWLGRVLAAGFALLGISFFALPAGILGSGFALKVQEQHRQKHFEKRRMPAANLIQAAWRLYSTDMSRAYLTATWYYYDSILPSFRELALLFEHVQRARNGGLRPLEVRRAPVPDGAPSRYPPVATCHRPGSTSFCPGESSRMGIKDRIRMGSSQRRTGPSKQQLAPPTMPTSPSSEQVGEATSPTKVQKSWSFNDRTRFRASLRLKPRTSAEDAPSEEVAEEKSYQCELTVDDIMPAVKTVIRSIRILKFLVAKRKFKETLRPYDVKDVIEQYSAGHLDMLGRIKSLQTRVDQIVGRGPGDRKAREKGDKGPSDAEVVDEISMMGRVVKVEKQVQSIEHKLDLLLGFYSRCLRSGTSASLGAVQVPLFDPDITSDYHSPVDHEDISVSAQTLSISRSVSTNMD
Briefly: Two-electrode voltage clamp of KCNQ4 currents in Xenopus oocytes. The format is cell-based. Conditions: 200 μM Linopirdine. On the procedure: (§1) KCNQ4 was expressed in Xenopus oocytes and its activity was investigated by two-electrode voltage clamping.
(§2) After linearization of the KCNQ4-containing PTLN vector with Hpal, capped cRNA was transcribed in vitro using the mMessage mMachine cRNA synthesis kit (Ambion). Usually 5-15 ng of cRNA were injected into Xenopus oocytes previously isolated by manual defolliculation and short collagenase treatment. In co-expression experiments cRNAs were injected at a 1:1 ratio. Oocytes were kept at 17° C. in modified Barth's solution (90 mM NaCl, 1 mM KCl, 0.41 mM CaCl2, 0.33 mM Ca(NO3)2, 0.82 mM MgSO4, 10 mM HEPES, 100 U penicillin-100 μg streptomycin/ml, pH 7.6).
(§3) Standard two-electrode voltage-clamp measurements were performed at room temperature 2-4 days after injection using a Turbotec 05 amplifier (npi instruments, Tamm, Germany) and pClamp 5.5 software (Axon Instruments). Currents were usually recorded in ND98 solution (see Table 2). Solutions for Na^+/K^+replacement experiments were prepared from an appropriate mixture of solution KD100 (100 mM KCl) and ND100 (100 mM NaCl) to yield the stated concentrations of Na^+and K^+. Linopirdine (RBI, Natick, Mass.) was prepared as a 100 mM stock solution in DMSO and added to a final concentration of 200 μM to ND98.

Assay [3] deals with T2, KCNQ3/KCNQ4 (Homo sapiens, UniProt O43525+P56696, H455Q).
T2 construct: A complete cDNA was assembled and cloned into the oocyte expression vector PTLN; expressed in transfected cells; host or cells: Xenopus oocytes (cRNAs co-injected 1:1)
T2 sequence (P56696 1-695 H455Q): T1 sequence (P56696 1-695 H455Q)
T2 sequence (O43525 1-872): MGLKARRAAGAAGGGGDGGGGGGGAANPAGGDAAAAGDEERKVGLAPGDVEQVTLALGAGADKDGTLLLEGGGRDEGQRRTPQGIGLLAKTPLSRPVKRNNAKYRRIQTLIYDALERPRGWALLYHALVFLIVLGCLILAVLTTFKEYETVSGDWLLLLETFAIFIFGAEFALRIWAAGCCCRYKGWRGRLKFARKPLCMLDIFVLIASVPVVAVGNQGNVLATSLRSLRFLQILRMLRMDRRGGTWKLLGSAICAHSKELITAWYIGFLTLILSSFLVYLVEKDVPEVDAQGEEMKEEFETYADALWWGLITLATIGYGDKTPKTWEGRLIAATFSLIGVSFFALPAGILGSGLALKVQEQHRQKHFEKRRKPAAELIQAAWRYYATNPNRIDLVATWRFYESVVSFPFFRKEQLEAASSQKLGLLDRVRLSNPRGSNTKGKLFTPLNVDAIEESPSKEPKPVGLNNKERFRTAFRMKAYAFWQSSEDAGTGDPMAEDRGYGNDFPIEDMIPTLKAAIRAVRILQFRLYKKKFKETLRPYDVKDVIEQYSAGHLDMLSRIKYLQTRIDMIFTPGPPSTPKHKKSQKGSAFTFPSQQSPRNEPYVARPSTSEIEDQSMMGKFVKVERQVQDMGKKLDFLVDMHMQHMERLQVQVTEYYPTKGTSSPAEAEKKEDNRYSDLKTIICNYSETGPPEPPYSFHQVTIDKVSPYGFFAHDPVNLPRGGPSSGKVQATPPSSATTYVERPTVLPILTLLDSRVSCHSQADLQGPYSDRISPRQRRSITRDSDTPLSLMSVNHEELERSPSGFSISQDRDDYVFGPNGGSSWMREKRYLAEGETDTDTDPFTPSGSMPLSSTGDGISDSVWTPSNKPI
Briefly: Two-electrode voltage clamp of KCNQ3+KCNQ4 co-expression currents in Xenopus oocytes. The following applies: 200 μM Linopirdine. The class given is cell-based. On the procedure: as §1, §2, §3

Chain of KCNQ2/KCNQ3 channels (O43526 1-844 isoform O43526-3 N752T, one chain of several): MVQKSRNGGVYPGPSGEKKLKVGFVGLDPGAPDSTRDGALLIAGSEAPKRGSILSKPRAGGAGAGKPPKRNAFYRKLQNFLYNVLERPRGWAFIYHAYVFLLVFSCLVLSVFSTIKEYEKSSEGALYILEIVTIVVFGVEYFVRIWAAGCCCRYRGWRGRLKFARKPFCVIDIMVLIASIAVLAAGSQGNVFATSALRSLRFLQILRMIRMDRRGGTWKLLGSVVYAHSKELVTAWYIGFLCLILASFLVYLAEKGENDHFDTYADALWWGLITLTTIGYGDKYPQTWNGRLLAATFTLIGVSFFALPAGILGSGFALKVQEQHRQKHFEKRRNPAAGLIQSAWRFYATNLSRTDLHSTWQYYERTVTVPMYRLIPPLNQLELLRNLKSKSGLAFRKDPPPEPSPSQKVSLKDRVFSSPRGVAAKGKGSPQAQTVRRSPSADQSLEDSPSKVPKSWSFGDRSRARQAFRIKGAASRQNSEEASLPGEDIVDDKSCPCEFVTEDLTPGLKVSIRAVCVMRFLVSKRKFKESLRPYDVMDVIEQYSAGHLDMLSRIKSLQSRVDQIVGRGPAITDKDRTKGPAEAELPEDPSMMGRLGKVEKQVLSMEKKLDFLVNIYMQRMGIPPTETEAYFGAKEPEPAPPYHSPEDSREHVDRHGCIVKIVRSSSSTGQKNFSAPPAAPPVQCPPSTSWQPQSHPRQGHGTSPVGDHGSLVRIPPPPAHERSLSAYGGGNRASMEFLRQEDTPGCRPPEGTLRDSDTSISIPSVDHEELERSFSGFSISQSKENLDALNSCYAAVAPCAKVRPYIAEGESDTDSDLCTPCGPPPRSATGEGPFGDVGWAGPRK

Take `O=C1N(c2ccccc2)c2ccccc2C1(Cc1ccncc1)Cc1ccncc1` [Linopirdine, 1,3-dihydro-1-phenyl-3,3-bis(4-pyridylmethyl)-2H-indol-2-one]: in assay [1], the “inhibition of KCNQ2/KCNQ3 channels” value is reported as “nearly completely inhibits”. Moreover, the “time to steady-state inhibition of KCNQ4 currents after addition” value in assay [2] was roughly 1 min. Further, in assay [2] (currents measured at +40 mV, Xenopus oocytes, ND98, read-out: inhibition of KCNQ4 current), the inhibition at 200 µM is roughly 30%. In addition, the “time to steady-state inhibition of KCNQ3+KCNQ4 currents after addition” value in assay [3] was roughly 3 min. Besides, in assay [3] (currents measured at +40 mV, Xenopus oocytes, ND98), the “inhibition of KCNQ3/KCNQ4 co-expression current” value is on record as “≈ 75%”.
